From patent US6017715A (priority 1996, dated 2000)
Values after ≈ are worked out from the molar mass of the structure shown.

System: Ceriodaphnia
Settings: in vivo; for LC50 value: ceriodaphnia, 48 h

Structure (SMILES) | LC50 value [ng/mL] | Diazinon TUs [TUs] | TUs by ELISA [TUs] | actual toxicity due to the chemical (TUs) | Chlorpyrifos TUs [TUs] | Actual Sample TUs / Sample TUs after treatment | Residual TUs (after PB Treatment) [TUs]
CCOP(=S)(OCC)Oc1cc(C)nc(C(C)C)n1 [Diazinon, diazinon] | 0.38 (≈ 1.25 nM) | 4.5 | 1.9 | 0.9 | – | – | –
CCOP(=S)(OCC)Oc1nc(Cl)c(Cl)cc1Cl [Chlorpyrifos, chlorpyrifos] | 0.08 (≈ 0.228 nM) | – | 3.2 | 0.5 | 2.2 | – | –
CCCCOCCOCCOCc1cc2c(cc1CCC)OCO2 [PB, piperonyl butoxide] | – | – | – | – | – | ~ 1.0 TUs | 1.0
